These are literature values, as cited in US20150202321A1, “COMPOSITIONS COMPRISING CHITOSAN-DRUG CONJUGATES AND METHODS OF MAKING AND USING THE SAME” (NEWGEN BIOPHARMA CORP., priority 2012, published 2015).

Counter-ions that a name gives are not always drawn. Like-named read-outs stand apart in the source and are kept apart here.

The bioavailability is dose-corrected exposure relative to a reference, in per cent.

The conditions of data set [1]: oral.
Test in data set [2]: not given
The source holds these as a separate data set.

For the molecule `CC(C)c1c(C(=O)Nc2ccccc2)c(-c2ccccc2)c(-c2ccc(F)cc2)n1CC[C@@H](O)C[C@@H](O)CC(=O)O` [AT, [R—(R/,R/)]-2-(4-fluorophenyl)-b,d-dihydroxy-5-(1-methylethyl)-3-phenyl-4-[(phenylamino)carbonyl]-1H-pyrrole-1-heptanoic acid, calcium salt (2:1) trihydrate], the “systemic availability for HMG-CoA reductase activity” value in data set [1] is recorded as “approximately 30%”.
In the case of `CC(=O)O[C@@]12CO[C@@H]1C[C@H](O)[C@@]1(C)C(=O)[C@H](O)C3=C(C)[C@@H](OC(=O)[C@H](O)[C@@H](NC(=O)OC(C)(C)C)c4ccccc4)C[C@@](O)([C@@H](OC(=O)c4ccccc4)[C@H]21)C3(C)C` [docetaxel], where the note is “intravenous administration”, the bioavailability is given as 100%. Further, the oral bioavailability is, setting by setting: (co-administered with cyclosporine) 90%±44%; (on its own) 8%±6%.
Take `CC(C)c1nc(N(C)S(C)(=O)=O)nc(-c2ccc(F)cc2)c1/C=C/[C@@H](O)C[C@@H](O)CC(=O)O` [rosuvastatin]: the “AUC following evening or morning drug administration” value in data set [2] (evening versus morning) is “does not differ”. In addition, in data set [2] (man), the absolute bioavailability result was “approximately 20%” and the elimination half life is roughly 19 h.
